Like-named read-outs stand apart in the source and are kept apart here.
Assays:
[1] = tested on: H929 multiple myeloma tumour line; experiment: In vitro cytotoxicity, Microculture Tetrazolium Assay; format: cell-based; conditions: H929 cells, 48 hours exposure, MTT, read-out: IC50 (μM) MTT H929
Protocol: The cytotoxicity studies were carried out on the H929 multiple myeloma tumour line.
The cells are distributed onto microplates and exposed to the test compounds for 48 hours.

[2] = molecular target: Mcl-1 protein (UniProtKB primary accession number: Q07820) (Homo sapiens, UniProt Q07820); experiment: Inhibition of Mcl-1 by fluorescence polarisation, Method 1; format: binding; conditions: read-out: IC50 (M) Mcl-1 FP
Mcl-1 protein, sequence (Q07820 whole entry): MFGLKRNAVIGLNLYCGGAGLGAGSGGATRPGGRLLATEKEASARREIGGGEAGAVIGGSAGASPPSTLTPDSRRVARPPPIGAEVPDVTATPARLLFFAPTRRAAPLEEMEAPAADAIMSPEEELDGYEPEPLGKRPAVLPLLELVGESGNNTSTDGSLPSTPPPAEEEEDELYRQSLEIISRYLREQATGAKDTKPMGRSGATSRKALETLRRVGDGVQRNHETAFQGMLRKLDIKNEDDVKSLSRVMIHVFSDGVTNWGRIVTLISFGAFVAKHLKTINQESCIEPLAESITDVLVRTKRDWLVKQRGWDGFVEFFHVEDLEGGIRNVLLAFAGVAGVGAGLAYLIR
Outline: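 FP competition, 11-point compound titration in 5% final DMSO; protein and labelled probe at 5 nM and 1 nM final in HEPES/NaCl/Tween 20 buffer, pH 7.4.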

[3] = fluorescence polarisation test, Method 2 values are underlined in the patent (underlining not visible here)
[4] = fluorescence polarisation, Method 1, or Method 2

| IC50 [2, 3] [M] | IC50 [2, 4] [M] | SMILES | IC50 ([1]; Homo sapiens, NCI-H929, 48 h) [µM] | IC50 [1] [µM] |
| --- | --- | --- | --- | --- |
| 1.7e-08 |  | COc1cc(F)ccc1CC(Oc1ncnc2sc(-c3ccco3)c(-c3ccc(OCCN4CCN(C)CC4)c(Cl)c3C)c12)C(=O)O [Example 346, (2R)-2-{[(5Sa)-5-{3-chloro-2-methyl-4-[2-(4-methylpiperazin-1-yl)ethoxy]phenyl}-6-(furan-2-yl)thieno[2,3-d]pyrimidin-4-yl]oxy}-3-(4-fluoro-2-methoxyphenyl)propanoic acid] | 0.063 |  |
|  | 1.2e-08 | CCCCn1nccc1COc1ccccc1CC(Oc1ncnc2sc(-c3ccc(CC)cc3)c(-c3ccc(OCCN4CCN(C)CC4)c(Cl)c3C)c12)C(=O)O [Example 601, (2R)-3-{2-[(1-butyl-1H-pyrazol-5-yl)methoxy]phenyl}-2-{[(5Sa)-5-{3-chloro-2-methyl-4-[2-(4-methylpiperazin-1-yl)ethoxy]phenyl}-6-(4-ethylphenyl)thieno[2,3-d]pyrimidin-4-yl]oxy}propanoic acid] | 0.133 |  |
|  | 2.9e-08 | C=Cc1ccc(-c2sc3ncnc(OC(Cc4ccccc4OC)C(=O)O)c3c2-c2ccc(OCCN3CCN(C)CC3)c(Cl)c2C)o1 [Example 584, (2R)-2-{[(5Sa)-5-{3-chloro-2-methyl-4-[2-(4-methylpiperazin-1-yl)ethoxy]phenyl}-6-(5-ethenylfuran-2-yl)thieno[2,3-d]pyrimidin-4-yl]oxy}-3-(2-methoxyphenyl)propanoic acid] | 0.902 |  |
|  | 3.9e-09 | C#Cc1sc2ncnc(OC(Cc3ccccc3OCc3ccnn3CCCC)C(=O)O)c2c1-c1ccc(OCCN2CCN(C)CC2)c(Cl)c1C [Example 611, (2R)-3-{2-[(1-butyl-1H-pyrazol-5-yl)methoxy]phenyl}-2-[((5Sa)-5-{3-chloro-2-methyl-4-[2-(4-methylpiperazin-1-yl)ethoxy]phenyl}-6-ethynylthieno[2,3-d]pyrimidin-4-yl)oxy]propanoic acid] | 0.23 |  |
| 1.2e-08 |  | CCc1c(-c2c(-c3ccco3)sc3ncnc(OC(Cc4ccccc4OC)C(=O)O)c23)ccc(OCCN2CCN(C)CC2)c1Cl [Example 335, (2R)-2-{[(5Sa)-5-{3-chloro-2-ethyl-4-[2-(4-methylpiperazin-1-yl)ethoxy]phenyl}-6-(furan-2-yl)thieno[2,3-d]pyrimidin-4-yl]oxy}-3-(2-methoxyphenyl)propanoic acid] | 0.217 |  |
| 3.5e-09 |  | CCCn1nccc1COc1ccccc1CC(Oc1ncnc2sc(-c3ccc(F)c(OC)c3)c(-c3ccc(OCCN4CCN(C)CC4)c(Cl)c3C)c12)C(=O)O [Example 385, (2R)-2-{[(5Sa)-5-{3-chloro-2-methyl-4-[2-(4-methylpiperazin-1-yl)ethoxy]phenyl}-6-(4-fluoro-3-methoxyphenyl)thieno[2,3-d]pyrimidin-4-yl]oxy}-3-{2-[(1-propyl-1H-pyrazol-5-yl)methoxy]phenyl}propanoic acid] | 0.048 |  |
|  | 1.9e-08 | CC#Cc1sc2ncnc(OC(Cc3ccccc3OC)C(=O)O)c2c1-c1ccc(OCCN2CCNCC2)c(Cl)c1C [Example 684, (2R)-2-{[(5Sa)-5-{3-chloro-2-methyl-4-[2-(piperazin-1-yl)ethoxy]phenyl}-6-(prop-1-yn-1-yl)thieno[2,3-d]pyrimidin-4-yl]oxy}-3-(2-methoxyphenyl)propanoic acid] | 2.23 |  |

Continued, compound first:

| SMILES | IC50 [2, 3] [M] | IC50 [2, 4] [M] | IC50 ([1]; Homo sapiens, NCI-H929, 48 h) [µM] | IC50 [1] [µM] |
| --- | --- | --- | --- | --- |
| COc1ccccc1CC(Oc1ncnc2sc(-c3ccco3)c(-c3ccc(OC4CCNC4)c(Cl)c3C)c12)C(=O)O (single isomer, unassigned) [Example 305, (2R)-2-({(5Sa)-5-[3-chloro-2-methyl-4-((3S or R)-pyrrolidin-3-yloxy)phenyl]-6-(furan-2-yl)thieno[2,3-d]pyrimidin-4-yl}oxy)-3-(2-methoxyphenyl) propanoic acid] | 6.9e-08 |  | 1.64 |  |
| COc1ccc(COc2ccccc2CC(Oc2ncnc3sc(-c4ccco4)c(-c4ccc(OCCN5CCN(C)CC5)c(Cl)c4C)c23)C(=O)O)nc1 [Example 233, (2R)-2-{[(5Sa)-5-{3-chloro-2-methyl-4-[2-(4-methylpiperazin-1-yl)ethoxy]phenyl}-6-(furan-2-yl)thieno[2,3-d]pyrimidin-4-yl]oxy}-3-{2-[(5-methoxypyridin-2-yl)methoxy]phenyl}propanoic acid] | 3.4e-09 |  | 0.099 |  |
| Cc1c(-c2c(-c3ccco3)sc3ncnc(OC(Cc4ccccc4OCc4ccc(Cl)cn4)C(=O)O)c23)ccc(OCCN2CCN(C)CC2)c1Cl [Example 231, (2R)-2-{[(5Sa)-5-{3-chloro-2-methyl-4-[2-(4-methylpiperazin-1-yl)ethoxy]phenyl}-6-(furan-2-yl)thieno[2,3-d]pyrimidin-4-yl]oxy}-3-{2-[(5-chloropyridin-2-yl)methoxy]phenyl}propanoic acid] | 1e-08 |  | 0.116 |  |
| Cc1c(-c2c(-c3ccc(F)cc3)sc3ncnc(OC(Cc4ccccc4OCc4cnccn4)C(=O)O)c23)ccc(OCC2CCN(C)C2)c1Cl [Example 139, (2R)-2-{[(5Sa)-5-(3-chloro-2-methyl-4-{[(3R)-1-methylpyrrolidin-3-yl]methoxy}phenyl)-6-(4-fluorophenyl)thieno[2,3-d]pyrimidin-4-yl]oxy}-3-[2-(pyrazin-2-ylmethoxy)phenyl]propanoic acid] | 8.5e-08 |  |  | 0.636 |
| CCOc1nccc(COc2ccccc2CC(Oc2ncnc3sc(-c4ccc(F)cc4)c(-c4ccc(OCCN(C)C)c(Cl)c4C)c23)C(=O)O)n1 [Example 130, (2R)-2-{[(5Sa)-5-{3-chloro-4-[2-(dimethylamino)ethoxy]-2-methylphenyl}-6-(4-fluorophenyl)thieno[2,3-d]pyrimidin-4-yl]oxy}-3-{2-[(2-ethoxypyrimidin-4-yl)methoxy]phenyl}propanoic acid] | 3.4e-09 |  | 0.065 |  |
| COc1cccc(-c2nccc(COc3ccccc3CC(Oc3ncnc4sc(-c5ccc(F)cc5)c(-c5ccc(OCCN6CCN(C)CC6)c(Cl)c5C)c34)C(=O)O)n2)c1 [Example 112, (2R)-2-{[(5Sa)-5-{3-chloro-2-methyl-4-[2-(4-methylpiperazin-1-yl)ethoxy]phenyl}-6-(4-fluorophenyl)thieno[2,3-d]pyrimidin-4-yl]oxy}-3-(2-{[2-(3-methoxyphenyl)pyrimidin-4-yl]methoxy}phenyl)propanoic acid] | 5.6e-09 |  | 0.011 |  |
| Cc1nccc(COc2ccccc2CC(Oc2ncnc3sc(-c4ccco4)c(-c4ccc(OCCN5CCN(C)CC5)c(Cl)c4C)c23)C(=O)O)n1 [Example 247, (2R)-2-{[(5Sa)-5-{3-chloro-2-methyl-4-[2-(4-methylpiperazin-1-yl)ethoxy]phenyl}-6-(furan-2-yl)thieno[2,3-d]pyrimidin-4-yl]oxy}-3-{2-[(2-methylpyrimidin-4-yl)methoxy]phenyl}propanoic acid] | 8e-09 |  | 0.022 |  |
| Cc1c(-c2c(-c3ccco3)sc3ncnc(O[C@H](Cc4ccccc4OCc4cc(C5CC5)nn4C)C(=O)O)c23)ccc(OCCN2CCN(C)CC2)c1Cl [Example 226, (2R)-2-{[(5Sa)-5-{3-chloro-2-methyl-4-[2-(4-methylpiperazin-1-yl)ethoxy]phenyl}-6-(furan-2-yl)thieno[2,3-d]pyrimidin-4-yl]oxy}-3-{2-[(3-cyclopropyl-1-methyl-1H-pyrazol-5-yl)methoxy]phenyl}propanoic acid] | 2.4e-08 |  |  | 0.311 |
| Cc1c(-c2c(-c3ccc(F)cc3)sc3ncnc(OC(Cc4ccccc4OCc4cnccn4)C(=O)O)c23)ccc(OC2CCCN(C)C2)c1Cl (single isomer, unassigned) [Example 141, (2R)-2-{[(5Sa)-5-{3-chloro-2-methyl-4-[((3S or R)-1-methylpiperidin-3-yl)oxy]phenyl}-6-(4-fluorophenyl)thieno[2,3-d]pyrimidin-4-yl]oxy}-3-[2-(pyrazin-2-ylmethoxy)phenyl]propanoic acid] | 3.1e-08 |  |  | 0.27 |
| COc1cc(COc2ccccc2CC(Oc2ncnc3sc(-c4ccc(F)cc4)c(-c4ccc(OCCN5CCN(C)CC5)c(Cl)c4C)c23)C(=O)O)nc(-c2ccccc2)n1 [Example 7, (2R)-2-{[(5Sa)-5-{3-chloro-2-methyl-4-[2-(4-methylpiperazin-1-yl)ethoxy]phenyl}-6-(4-fluorophenyl)thieno[2,3-d]pyrimidin-4-yl]oxy}-3-{2-[(6-methoxy-2-phenylpyrimidin-4-yl)methoxy]phenyl}propanoic acid] | 8.6e-09 |  | 0.066 |  |
| Cc1c(-c2c(-c3ccco3)sc3ncnc(OC(Cc4ccccc4OCC(=O)N(C)C)C(=O)O)c23)ccc(OCCN2CCN(C)CC2)c1Cl [Example 217, (2R)-2-{[(5Sa)-5-{3-chloro-2-methyl-4-[2-(4-methylpiperazin-1-yl)ethoxy]phenyl}-6-(furan-2-yl)thieno[2,3-d]pyrimidin-4-yl]oxy}-3-{2-[2-(dimethylamino)-2-oxoethoxy]phenyl}propanoic acid] | 5.3e-09 |  | 1.48 |  |
| COc1ccccc1CC(Oc1ncnc2sc(-c3ccco3)c(-c3ccc(OCCN4CCN(Cc5ccccc5)CC4)c(Cl)c3C)c12)C(=O)O [Example 329, (2R)-2-{[(5Sa)-5-{4-[2-(4-benzylpiperazin-1-yl)ethoxy]-3-chloro-2-methylphenyl}-6-(furan-2-yl)thieno[2,3-d]pyrimidin-4-yl]oxy}-3-(2-methoxyphenyl)propanoic acid] | 6e-08 |  | 3.31 |  |

From patent US9670227B2, “Thienopyrimidine derivatives, a process for their preparation and pharmaceutical compositions containing them” (LES LABORATOIRES SERVIER, priority 2013, dated 2017)
